Test results reported in US20060084615A1, “Puerarin derivatives and their medical uses” (priority 2004, published 2006).

Experiments:
in vivo = assay: in vivo
Experimental: Agilent 1100 HPLC, DAD diode, HP1100 chromatography workstation and Agilent XDB-C18 column (250 mm×4.6 mm D, 5 μm) were used. The pre-column is Agilent XDB-C18 column (12.5 mm×4.6 mm D, 5 μm). Gradient elution was carried according to Table 1 below: […]
Sprague-Dawley (SD) rats weighing 180±20 g, both male and female were provided by the Laboratory Animal Centre of the Guangzhou Traditional Chinese Medicine (TCM) University.
Two hundred and sixty SD rats were randomly divided into 20 groups with 13 rats in each group. The rats were fasted for one day before the test.
Puerarin, 4ac, 5ac and 6ac was dissolved in sterilized water to produce suspension of final dosage of 400 mg/kg, 560 mg/kg, 600 mg/kg and 640 mg/kg, 10 ml/kg and administered orally to the rats.
At t=10, 20, 30, 45, 60, 90, 120 min, 2 h, 4 h, 6 h, 7 h, 8 h and 12 h after administration, 3 ml of blood was collected from the femoral vein of each animal and kept in a centrifuge tube at room temperature for 0.5 h. The blood was centrifuged at 3000 r/min for 15 min and the serum was taken for analysis.
Serum (0.5 ml) was added with 0.2 ml methanol and mixed with a vortex mixer for 1 min. The mixture was then centrifuged at 3000 r/min for 15 min. The supernatant was dried by nitrogen gas flow and the residue was dissolved in 0.2 ml methanol. The mixture was again centrifuged at 10000 r/min for 10 min and the supernatant subjected to HPLC analysis.
The samples were treated, applied and as stated in section 2.2, and the serum concentration of each compound was calculated by the one-point external standard method. The calculated data were processed using the 3P97 pharmacokinetics statistics software supplied by the Mathematics Committee of the China Pharmacology Association.

[1] = test system: myocardial ischemic rats induced by posterior pituitary injection; assay: Acute myocardial ischemia induced by posterior pituitary extract injection, ECG T wave variation; assay type: in vivo, SD rats; conditions: for Amplitude of T wave: i.g. 5 days plus day 6, X ± SD, n = 10; for Effect against myocardial ischemia in rats induced by posterior pituitary injection: doses 0.8 g/kg puerarin, 1.12 g/kg 4ac, 1.20 g/kg 5ac, 1.28 g/kg 6ac (equivalent to 0.8 g/kg puerarin)
Experimental: Puerarin was purchased from Beijing Union Pharmaceutical Factory (PRC). Puerarin derivatives 4ac, 5ac and 6ac were supplied by The Hong Kong Polytechnic University. The puerarin was dissolved in 1:1 of PEG400 and sterilized distilled water to make 0.8 g/kg body weight, 10 ml/kg body weight solutions for i.g. feeding.
Puerarin derivative 4ac was dissolved in 1:1 of PEG400 and sterilized distilled water to make 1.12 g/kg, 10 ml/kg solution for intra-gastro (i.g.) feeding. Puerarin derivative 5ac was dissolved in 1:1 of PEG400 and sterilized distilled water to make 1.20 g/kg, 10 ml/kg solution for i.g. feeding. Puerarin derivative 6ac was dissolved in 1:1 of PEG400 and sterilized distilled water to make 1.28 g/kg, 10 ml/kg solution for ig feeding. The concentrations of each solution were selected such that 0.8 g/kg of equivalent puerarin will be administered to each animal.
Propranolol hydrochloride at 10 mg/tablet, was from the Shantou Jinshi Pharmaceuticals (PRC, batch no: 020802). Propranolol hydrochloride is a drug prescribed for myocardial ischemia. It is expected to decrease the T wave elevation in ECG during myocardial ischemia. The drug was dissolved in sterilized distilled water to make a 0.2 mg/ml, 10 ml/kg solution for i.g. feeding.
Sixty SPF grade SD rats weighing 200±20 g of both sexes were grouped evenly into six groups according to their weight and sex, and fed i.g. according to the following protocol: • a) Normal: distilled water 10 ml/kg; • b) Positive control: propranolol hydrochloride […], 10 ml/kg; • c) Puerarin solution: puerarin 0.8 g/kg, 10 ml/kg; • d) Puerarin derivative 4ac solution: 4ac 1.12 g/kg, 10 ml/kg; • e) Puerarin derivative 5ac solution: 5ac 1.20 g/kg, 10 ml/kg; • f) Puerarin derivative 6ac solution: 6ac 1.28 g/kg, 10 ml/kg.
The rats were administered the respective treatments for five consecutive days. On the sixth day, one hour after the administration of the treatment, the rats were anesthetized with 3% pentobarbital sodium at a dose of 40 mg/kg i.p. Two terminal leads were connected to the rats to record the normal electrocardiograph (ECG).
When the ECG reading became steady, 1 u/kg of posterior pituitary extract injection (obtained from the Nanjing Xintian Biochemical Pharmaceuticals Company Ltd; batch no 020601) was given intraveneously at the tail vein. Posterior pituitary extract induces acute myocardial ischemia. On ECG, the extract causes the T wave to elevate, flatten and sometimes invert. It also elevates the ST segment and lengthens the PR and QT intervals.
The ECG was recorded immediately for 30 minutes. The variations in T wave were calculated and analyzed statistically.

[2] = 5 s after posterior pituitary injection
[3] = 15 s after posterior pituitary injection
[4] = 30 s after posterior pituitary injection
[5] = 2 min after posterior pituitary injection
[6] = 5 min after posterior pituitary injection
[7] = 10 min after posterior pituitary injection
[8] = oral suspension, SD rats, serum puerarin by HPLC, puerarin 400, 4ac 560, 5ac 600, 6ac 640 mg/kg

SMILES	Pharmacokinetic compartment model fitted (3P97 software) (in vivo; rat, in vivo, po)	AUC(0-∞) = area under concentration-time curve (in vivo; rat, in vivo, po, 640 mg/kg)	CL = total body clearance (in vivo; rat, in vivo, po, 640 mg/kg) [mg/kg/min/µg/mL]	Amplitude of T wave [1, 2] [μV]	Amplitude of T wave [1, 3] [μV]	Amplitude of T wave [1, 4] [μV]	Amplitude of T wave [1, 5] [μV]	Amplitude of T wave [1, 6] [μV]	Amplitude of T wave [1, 7] [μV]	Effect against myocardial ischemia in rats induced by posterior pituitary injection [1]	Pharmacokinetic compartment model fitted (3P97 software) (in vivo; oral, SD rats)	further results
CC(=O)OCC1OC(c2c(OC(C)=O)ccc3c(=O)c(-c4ccc(O)cc4)coc23)C(OC(C)=O)C(OC(C)=O)C1OC(C)=O (stereo not shown) [Compound 5ac, 7,2″,3″,4″,6″-0-pentaacetylpuerarin]	two-compartment open model	4566.95 ± 762.64 (μg/ml)min	0.1011 ± 0.0425	19.09 ± 6.20	29.42 ± 9.39	37.61 ± 13.43	40.11 ± 16.04	24.50 ± 13.63	24.39 ± 14.28	effective	–	t1/2(a) = half-life of absorption (in vivo; rat, in vivo, po, 640 mg/kg): 0.368613 ± 0.311893 h; t1/2(β) = half-life of clearance (in vivo; rat, in vivo, po, 640 mg/kg): 7.0838 ± 4.228 h
CC(=O)OC[C@H]1O[C@@H](c2c(OC(C)=O)ccc3c(=O)c(-c4ccc(OC(C)=O)cc4)coc23)[C@H](OC(C)=O)[C@@H](OC(C)=O)[C@@H]1OC(C)=O [Compound 6ac, Hexa-0-acetyl puerarin]	–	–	–	16.33 ± 9.18	29.09 ± 16.50	39.12 ± 15.21	41.05 ± 15.60	29.14 ± 10.60	22.11 ± 9.81	effective	two-compartment open model	AUC(0-∞) = area under concentration-time curve (in vivo; [8]): 3149.69 ± 467.26 (μg/ml)min; C (max) = maximum concentration reached by the compound (in vivo; [8]): 4932.4 ± 69.5 ng/mL; CL = total body clearance (in vivo; [8]): 0.1696 ± 0.1206 mg/kg/min/µg/mL; T(peak) = time the compound takes to reach the absorption peak (in vivo; [8]): 81.39 ± 10.02 min; t1/2(a) = half-life of absorption (in vivo; [8]): 1.86617 ± 1.811 h; t1/2(β) = half-life of clearance (in vivo; [8]): 44.4162 ± 6.3323 h
O=c1c(-c2ccc(O)cc2)coc2c([C@@H]3O[C@H](CO)[C@@H](O)[C@H](O)[C@H]3O)c(O)ccc12 [Puerarin]	–	2729.94 ± 491.99 (μg/ml)min	0.2032 ± 0.0541	18.06 ± 10.09	25.69 ± 11.21	31.22 ± 14.59	39.20 ± 16.11	29.10 ± 16.23	25.01 ± 10.40	effective	two-compartment open model	half-life (in vivo; both, Sprague-Dawley, rat, in vivo, po, 640 mg/kg, t1/2(a) = half-life of absorption): 0.89 ± 0.189 h; half-life (in vivo; both, Sprague-Dawley, rat, in vivo, po, 640 mg/kg, t1/2(β) = half-life of clearance): 1.015 ± 0.00719 h
CC(C)NCC(O)COc1cccc2ccccc12.Cl (stereo not shown) [+ve control, Propranolol hydrochloride, reference compound]	–	–	–	16.11 ± 5.30	18.51 ± 9.26	22.10 ± 11.23	30.41 ± 11.58	26.62 ± 10.99	22.09 ± 11.31	–	–	–
CC(=O)OCC1OC(c2c(O)ccc3c(=O)c(-c4ccc(O)cc4)coc23)C(OC(C)=O)C(OC(C)=O)C1OC(C)=O (stereo not shown) [Compound 4ac, 2″,3″,4″,6″-0-tetraacetylpuerarin]	one-compartment open model	6104.81 ± 275.29 (μg/ml)min	0.1030 ± 0.0163	15.09 ± 7.62	23.23 ± 10.69	35.40 ± 10.93	36.51 ± 16.02	25.60 ± 14.23	25.41 ± 10.21	effective	–	C(max) relative to that of puerarin (in vivo; both, Sprague-Dawley, rat, in vivo, po): 1.90 folds; AUC compared with puerarin (t test) (in vivo; rat, in vivo, po): significantly greater; AUC relative to that of puerarin (in vivo; rat, in vivo, po): 2.24 folds; Bioavailability compared with puerarin (in vivo; rat, in vivo, po): higher than puerarin and other derivatives
